Measured values taken from patent US20240383923A1, “HETEROARYL DERIVATIVE AND USE THEREOF” (VORONOI INC., priority 2022, published 2024).

tested on: BT-474 cancer cells; experiment: Inhibition of BT-474 cell proliferation (CellTiter-Glo); assay type: cell-based; details: Homo sapiens, BT-474 cells, 120 hours
Procedure, shortened: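 BT-474 cells in RPMI-1640 with 20% FBS, seeded 48 h before dosing with 11 three-fold dilutions (final 0.2 nM to 10 μM). Viability read by CellTiter-Glo luminescence 120 h after treatment, triplicate tests. GI50 derived from growth rate (%) versus control.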

SMILES	GI50 [nM]
COc1cc2ncnc(Nc3cc(C)c(Oc4ccc(N(C)C)cc4)cc3OC)c2cc1NC(=O)/C(F)=C\[C@H]1CCCN1C [Example 123, (R,E)-N-(4-((4-(4-(dimethylamino)phenoxy)-2-methoxy-5-methylphenyl)amino)-7-methoxyquinazolin-6-yl)-2-fluoro-3-(1-methylpyrrolidin-2-yl)acrylamide]	50 to 100
COc1cc2ncnc(Nc3cc(C)c(Oc4ccc(C(=O)N(C)C)cc4)cc3OC)c2cc1NC(=O)/C(F)=C/[C@H]1CCCN1C [Example 125, (R,Z)-4-(4-((6-(2-fluoro-3-(1-methylpyrrolidin-2-yl)acrylamido)-7-methoxyquinazolin-4-yl)amino)-5-methoxy-2-methylphenoxy)-N,N-dimethylbenzamide]	50 to 100
COc1cc2ncnc(Nc3cc(C)c(Oc4ccc(C(=O)N(C)C)cc4)cc3OC)c2cc1NC(=O)/C(F)=C\[C@H]1CCCN1C [Example 126, (R,E)-4-(4-((6-(2-fluoro-3-(1-methylpyrrolidin-2-yl)acrylamido)-7-methoxyquinazolin-4-yl)amino)-5-methoxy-2-methylphenoxy)-N,N-dimethylbenzamide]	100 to 500
COc1cc2ncnc(Nc3cc(N(C)C)c(Oc4ccn5ncnc5c4)cc3OC)c2cc1NC(=O)/C(F)=C\[C@H]1CCCN1C [Example 127, (R,E)-N-(4-((4-([1,2,4]triazolo[1,5-a]pyridin-7-yloxy)-5-(dimethylamino)-2-methoxyphenyl)amino)-7-methoxyquinazolin-6-yl)-2-fluoro-3-(1-methylpyrrolidin-2-yl)acrylamide]	100 to 500
COc1cc2ncnc(Nc3cc(C)c(Oc4ccn5ncnc5c4)cc3OC)c2cc1NC(=O)/C(F)=C/[C@H]1CCCCN1C [Example 131, (R,Z)—N-(4-((4-([1,2,4]triazolo[1,5-a]pyridin-7-yloxy)-2-methoxy-5-methylphenyl)amino)-7-methoxyquinazolin-6-yl)-2-fluoro-3-(1-methylpiperidin-2-yl)acrylamide]	≤ 50
CCOc1cc2ncc(C#N)c(Nc3cc(C)c(Oc4ccn5ncnc5c4)cc3OC)c2cc1NC(=O)/C(F)=C\[C@H]1CCCN1C [Example 132, (R,E)-N-(4-((4-([1,2,4]triazolo[1,5-a]pyridin-7-yloxy)-2-methoxy-5-methylphenyl)amino)-3-cyano-7-ethoxyquinolin-6-yl)-2-fluoro-3-(1-methylpyrrolidin-2-yl)acrylamide]	100 to 500
COc1cc2ncnc(Nc3cc(C)c(Oc4cccc(NC(C)=O)c4)cc3OC)c2cc1NC(=O)/C(F)=C/[C@H]1CCCN1C [Example 133, (R,Z)—N-(4-((4-(3-acetamidophenoxy)-2-methoxy-5-methylphenyl)amino)-7-methoxyquinazolin-6-yl)-2-fluoro-3-(1-methylpyrrolidin-2-yl)acrylamide]	≤ 50
COc1cc2ncnc(Nc3cc(C)c(Oc4ccn5ncnc5c4)cc3OC)c2cc1NC(=O)/C(F)=C/[C@H]1CCCN1 [Example 135, (R,Z)—N-(4-((4-([1,2,4]triazolo[1,5-a]pyridin-7-yloxy)-2-methoxy-5-methylphenyl)amino)-7-methoxyquinazolin-6-yl)-2-fluoro-3-(pyrrolidin-2-yl)acrylamide]	≤ 50
COc1cc2ncnc(Nc3cc(C4CC4)c(Oc4ccn5ncnc5c4)cc3OC)c2cc1NC(=O)/C(F)=C/[C@H]1CCCN1C [Example 137, (R,Z)—N-(4-((4-([1,2,4]triazolo[1,5-a]pyridin-7-yloxy)-5-cyclopropyl-2-methoxyphenyl)amino)-7-methoxyquinazolin-6-yl)-2-fluoro-3-(1-methylpyrrolidin-2-yl)acrylamide]	50 to 100
COc1cc2ncnc(Nc3cc(Br)c(Oc4ccn5ncnc5c4)cc3OC)c2cc1NC(=O)/C(F)=C/[C@H]1CCCN1C [Example 139, (R,Z)—N-(4-((4-([1,2,4]triazolo[1,5-a]pyridin-7-yloxy)-5-bromo-2-methoxyphenyl)amino)-7-methoxyquinazolin-6-yl)-2-fluoro-3-(1-methylpyrrolidin-2-yl)acrylamide]	≤ 50
COc1cc2ncnc(Nc3cc(Br)c(Oc4ccn5ncnc5c4)cc3OC)c2cc1NC(=O)/C(F)=C\[C@H]1CCCN1C [Example 140, (R,E)-N-(4-((4-([1,2,4]triazolo[1,5-a]pyridin-7-yloxy)-5-bromo-2-methoxyphenyl)amino)-7-methoxyquinazolin-6-yl)-2-fluoro-3-(1-methylpyrrolidin-2-yl)acrylamide]	≤ 50
COc1cc(Oc2ccn3ncnc3c2)c(C)cc1Nc1ncnc2ccc(NC(=O)/C(F)=C/[C@H]3CCCN3C)c(Cl)c12 [Example 141, (R,Z)—N-(4-((4-([1,2,4]triazolo[1,5-a]pyridin-7-yloxy)-2-methoxy-5-methylphenyl)amino)-5-chloroquinazolin-6-yl)-2-fluoro-3-(1-methylpyrrolidin-2-yl)acrylamide]	≤ 50
COc1cc2ncnc(Nc3cc(C)c(Oc4ccn5ncnc5c4)cc3OC)c2cc1NC(=O)/C(C#N)=C\C(C)(C)N1CCN(C2COC2)CC1 [Example 144, (Z)—N-(4-((4-([1,2,4]triazolo[1,5-a]pyridin-7-yloxy)-2-methoxy-5-methylphenyl)amino)-7-methoxyquinazolin-6-yl)-2-cyano-4-methyl-4-(4-(oxetan-3-yl)piperazin-1-yl)pent-2-enamide]	> 500
C=C(C(=O)Nc1cc2c(Nc3cc(C)c(Oc4ccn5ncnc5c4)cc3OC)ncnc2cc1OC)n1cccn1 [Example 147, N-(4-((4-([1,2,4]triazolo[1,5-a]pyridin-7-yloxy)-2-methoxy-5-methylphenyl)amino)-7-methoxyquinazolin-6-yl)-2-(1H-pyrazol-1-yl)acrylamide]	100 to 500
[2H]C([2H])([2H])Oc1cc(Oc2ccn3ncnc3c2)c(C)cc1Nc1ncnc2cc(OC)c(NC(=O)/C=C/[C@H]3CCCN3C)cc12 [Example 148, (R,E)-N-(4-((4-([1,2,4]triazolo[1,5-a]pyridin-7-yloxy)-2-(methoxy-d3)-5-methylphenyl)amino)-7-methoxyquinazolin-6-yl)-3-(1-methylpyrrolidin-2-yl)acrylamide]	≤ 50
[2H]C([2H])([2H])Oc1cc(Oc2ccn3ncnc3c2)c(C)cc1Nc1ncnc2cc(OC)c(NC(=O)/C(F)=C/[C@H]3CCCN3C)cc12 [Example 149, (R,Z)—N-(4-((4-([1,2,4]triazolo[1,5-a]pyridin-7-yloxy)-2-(methoxy-d3)-5-methylphenyl)amino)-7-methoxyquinazolin-6-yl)-2-fluoro-3-(1-methylpyrrolidin-2-yl)acrylamide]	≤ 50
[2H]C([2H])([2H])Oc1cc(Oc2ccn3ncnc3c2)c(C)cc1Nc1ncnc2cc(OC)c(NC(=O)/C(F)=C\[C@H]3CCCN3C)cc12 [Example 150, (R,E)-N-(4-((4-([1,2,4]triazolo[1,5-a]pyridin-7-yloxy)-2-(methoxy-d3)-5-methylphenyl)amino)-7-methoxyquinazolin-6-yl)-2-fluoro-3-(1-methylpyrrolidin-2-yl)acrylamide]	≤ 50
[2H]C([2H])([2H])Oc1cc(Oc2ccn3ncnc3c2)c(F)cc1Nc1ncnc2cc(OC)c(NC(=O)/C(F)=C/[C@H]3CCCN3C)cc12 [Example 151, (R,Z)—N-(4-((4-([1,2,4]triazolo[1,5-a]pyridin-7-yloxy)-5-fluoro-2-(methoxy-d3)phenyl)amino)-7-methoxyquinazolin-6-yl)-2-fluoro-3-(1-methylpyrrolidin-2-yl)acrylamide]	≤ 50
[2H]C([2H])([2H])Oc1cc(Oc2ccn3ncnc3c2)c(F)cc1Nc1ncnc2cc(OC)c(NC(=O)/C(F)=C\[C@H]3CCCN3C)cc12 [Example 152, (R,E)-N-(4-((4-([1,2,4]triazolo[1,5-a]pyridin-7-yloxy)-5-fluoro-2-(methoxy-d3)phenyl)amino)-7-methoxyquinazolin-6-yl)-2-fluoro-3-(1-methylpyrrolidin-2-yl)acrylamide]	≤ 50
[2H]C([2H])([2H])N1CCC[C@@H]1/C=C/C(=O)Nc1cc2c(Nc3cc(C)c(Oc4ccn5ncnc5c4)cc3OC)ncnc2cc1OC [Example 153, (R,E)-N-(4-((4-([1,2,4]triazolo[1,5-a]pyridin-7-yloxy)-2-methoxy-5-methylphenyl)amino)-7-methoxyquinazolin-6-yl)-3-(1-(methyl-d3)pyrrolidin-2-yl)acrylamide]	≤ 50
[2H]C([2H])([2H])N1CCC[C@@H]1/C=C(\F)C(=O)Nc1cc2c(Nc3cc(C)c(Oc4ccn5ncnc5c4)cc3OC)ncnc2cc1OC [Example 154, (R,Z)—N-(4-((4-([1,2,4]triazolo[1,5-a]pyridin-7-yloxy)-2-methoxy-5-methylphenyl)amino)-7-methoxyquinazolin-6-yl)-2-fluoro-3-(1-(methyl-d3)pyrrolidin-2-yl)acrylamide]	≤ 50
[2H]C([2H])([2H])N1CCC[C@@H]1/C=C(\F)C(=O)Nc1cc2c(Nc3cc(F)c(Oc4ccn5ncnc5c4)cc3OC)ncnc2cc1OC [Example 155, (R,Z)—N-(4-((4-([1,2,4]triazolo[1,5-a]pyridin-7-yloxy)-5-fluoro-2-methoxyphenyl)amino)-7-methoxyquinazolin-6-yl)-2-fluoro-3-(1-(methyl-d3)pyrrolidin-2-yl)acrylamide]	≤ 50
[2H]C([2H])([2H])N1CCC[C@@H]1/C=C(\F)C(=O)Nc1cc2c(Nc3cc(Cl)c(Oc4ccn5ncnc5c4)cc3OC)ncnc2cc1OC [Example 156, (R,Z)—N-(4-((4-([1,2,4]triazolo[1,5-a]pyridin-7-yloxy)-5-chloro-2-methoxyphenyl)amino)-7-methoxyquinazolin-6-yl)-2-fluoro-3-(1-(methyl-d3)pyrrolidin-2-yl)acrylamide]	≤ 50
[2H]C([2H])([2H])N1CCC[C@@H]1/C=C(/F)C(=O)Nc1cc2c(Nc3cc(F)c(Oc4ccn5ncnc5c4)cc3OC)ncnc2cc1OC [Example 157, (R,E)-N-(4-((4-([1,2,4]triazolo[1,5-a]pyridin-7-yloxy)-5-fluoro-2-methoxyphenyl)amino)-7-methoxyquinazolin-6-yl)-2-fluoro-3-(1-(methyl-d3)pyrrolidin-2-yl)acrylamide]	≤ 50
